# Tests used:
# prickly sida = assay: Test Example 2: soil surface treatment, upland pot test; assay type: in vivo, Sida spinosa L.; details: observed 20th to 28th day
# Procedure, shortened: (§1)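 Sowing, then next-day soil-surface spray of formulated test compound (fixed a.i. amount, 1,500 L/ha spray volume); visual evaluation of growth inhibition, 0–100%, three to four weeks (days 20–28) after application.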
# velvetleaf = assay: as above; assay type: in vivo, Abutilon theophrasti MEDIC.; details: observed 20th to 28th day
# Procedure, shortened: as §1
# japanese bulrush = assay: Test Example 3: paddy pot test, application under submerged conditions; assay type: in vivo, Scirpus juncoides; details: submerged application at 0.5 leaf stage, visually observed 14 days after application, 0 = non-treated, 100 = complete kill
# Procedure, shortened: (§2)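 Paddy soil pots; seeds sown, lightly covered; flooded 0.5–1 cm in greenhouse; wapato tubers planted day 1–2; flood raised to 3–4 cm. Submerged pipette application at 0.5 leaf / primary leaf stage. Visual score day 14, 0–100%.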
# japanese ribbon wapato = assay: as above; assay type: in vivo, Sagittaria pygniaea; details: submerged application at primary leaf stage, visually observed 14 days after application, 0 = non-treated, 100 = complete kill
# Procedure, shortened: as §2
# rice (var. Nihonbare) = assay: Test Example 3: paddy pot test, transplanted rice; assay type: in vivo, Oryza sativa L.; details: applied 4th day after transplantation, visually observed 21st day after application, 0 = non-treated, 100 = complete kill
# Procedure, shortened: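 Visual crop-injury rating (0 = as untreated, 100 = complete kill, %) taken 21 days post-application. Treatment: formulated compound, water-diluted, pipetted into 3–4 cm flood water at a preset active-ingredient dose, 4 days after transplanting 2-leaf Nihonbare rice 3 cm deep in puddled paddy soil.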
# wheat = assay: Test Example 2: soil surface treatment, upland pot test; assay type: in vivo, Triticum spp.; details: observed 20th to 28th day
# Text: Upland field soil was put into a 1/170,000 ha pot, and seed of various plants (barnyardgrass, crabgrass, green foxtail, redroot pigweed, prickly sida, velvetleaf, rice, wheat, corn, soybean) were sown. On the 1st day after the sowing, a wettable powder or emulsifiable concentrate having the compound of the present invention formulated in accordance with a usual formulation method, was weighed so that the active ingredient would be a predetermined amount, and diluted with water in an amount of 1,500 L/ha. The herbicide thus adjusted was applied by a small size sprayer for soil surface treatment. On the 20th to 28th days after the application of the herbicide, the growth of the respective plants was visually observed, and the herbicidal effects were evaluated by the growth controlling degrees (%) ranging from 0 (equivalent to the non-treated plot) to 100 (complete kill), whereby the results shown in Table 4, were obtained.
# soybean = assay: as above; assay type: in vivo, Glycine max Merr.; details: observed 20th to 28th day
# Procedure, shortened: as §1
# barnyardgrass [1] = assay: as above; assay type: in vivo, Echinochloa crus-galli L.; details: observed 20th to 28th day
# Procedure, shortened: as §1
# barnyardgrass [2] = assay: Test Example 3: paddy pot test, application under submerged conditions; assay type: in vivo, Echinochloa crus-galli L.; details: submerged application at 0.5 leaf stage, visually observed 14 days after application, 0 = non-treated, 100 = complete kill
# Procedure, shortened: as §2
# redroot pigweed = assay: Test Example 2: soil surface treatment, upland pot test; assay type: in vivo, Amaranthus retroflexus L.; details: observed 20th to 28th day
# Procedure, shortened: as §1
# green foxtail = assay: as above; assay type: in vivo, Setaria viridis L.; details: observed 20th to 28th day
# Procedure, shortened: as §1
# rice = assay: as above; assay type: in vivo, Oryza sativa L.; details: observed 20th to 28th day
# Procedure, shortened: as §1
# crabgrass = assay: as above; assay type: in vivo, Digitaria sanguinalis L.; details: observed 20th to 28th day
# Procedure, shortened: as §1
# corn = assay: as above; assay type: in vivo, Zea mays L.; details: observed 20th to 28th day
# Procedure, shortened: as §1
# [3] = active ingredient 1000 g/ha, 0 = non-treated, 100 = complete kill
Compound,Growth controlling degree (%) Prickly sida (prickly sida; active ingredient 1000 g/ha),Growth controlling degree (%) Velvetleaf (velvetleaf; active ingredient 1000 g/ha),Growth controlling degree (%) wheat (wheat; active ingredient 1000 g/ha),Growth controlling degree (%) Soyabean (soybean; active ingredient 1000 g/ha),Growth controlling degree (%) Barnyardgrass (barnyardgrass [1]; [3]),Growth controlling degree (%) Redroot pigweed (redroot pigweed; active ingredient 1000 g/ha),Growth controlling degree (%) Green foxtail (green foxtail; active ingredient 1000 g/ha),Growth controlling degree (%) Rice (rice; active ingredient 1000 g/ha),Growth controlling degree (%) Crabgrass (crabgrass; active ingredient 1000 g/ha),Growth controlling degree (%) Corn (corn; active ingredient 1000 g/ha),Growth controlling degree (%) Japanese bulrush (japanese bulrush; active ingredient 500 g/ha),Growth controlling degree (%) Japanese ribbon wapato (japanese ribbon wapato; active ingredient 500 g/ha),Growth controlling degree (%) Rice (rice (var. Nihonbare); active ingredient 500 g/ha),Growth controlling degree (%) Barnyardgrass (barnyardgrass [2]; active ingredient 500 g/ha),also measured
CC(C)C(NC(=O)Cc1ccccc1)c1cnccc1C(F)(F)F (stereo not drawn) [Compound I-3],10%,0%,0%,0%,0%,20%,90%,10%,90%,0%,–,–,–,–,Growth controlling degree (%) Japanese bulrush (japanese bulrush; active ingredient 1000 g/ha): 98%; Growth controlling degree (%) Japanese ribbon wapato (japanese ribbon wapato; active ingredient 1000 g/ha): 30%; Growth controlling degree (%) Rice (rice (var. Nihonbare); active ingredient 1000 g/ha): 20%; Growth controlling degree (%) Barnyardgrass (barnyardgrass [2]; active ingredient 1000 g/ha): 90%
CC(C)C(NC(=O)Cc1c(F)cccc1F)c1cnccc1C(F)(F)F (stereo not drawn) [Compound I-5],0%,0%,10%,10%,30%,0%,70%,10%,90%,20%,90%,50%,20%,60%,–
CC(C)C(NC(=O)Cc1ccc(Br)cc1)c1cnccc1C(F)(F)F (stereo not drawn) [Compound I-8],50%,0%,30%,30%,50%,80%,50%,10%,50%,10%,90%,10%,0%,90%,–
CC(C(=O)NC(c1cnccc1C(F)(F)F)C(C)C)c1ccccc1 (stereo not drawn) [Compound I-11],0%,0%,50%,0%,98%,0%,90%,0%,90%,10%,90%,30%,10%,60%,–
CC(C)C(c1cnccc1C(F)(F)F)N(C)C(=O)Cc1cccc(F)c1 (stereo not drawn) [Compound I-20],–,–,–,–,–,–,–,–,–,–,90%,90%,40%,–,Growth controlling degree (%) Prickly sida (prickly sida; active ingredient 500 g/ha): 100%; Growth controlling degree (%) Velvetleaf (velvetleaf; active ingredient 500 g/ha): 100%; Growth controlling degree (%) wheat (wheat; active ingredient 500 g/ha): 40%; Growth controlling degree (%) Soyabean (soybean; active ingredient 500 g/ha): 30%; Growth controlling degree (%) Barnyardgrass (barnyardgrass [1]; active ingredient 500 g/ha): 100%; Growth controlling degree (%) Redroot pigweed (redroot pigweed; active ingredient 500 g/ha): 95%; Growth controlling degree (%) Green foxtail (green foxtail; active ingredient 500 g/ha): 100%; Growth controlling degree (%) Rice (rice; active ingredient 500 g/ha): 0%; Growth controlling degree (%) Crabgrass (crabgrass; active ingredient 500 g/ha): 100%; Growth controlling degree (%) Corn (corn; active ingredient 500 g/ha): 70%
CCC(=O)NC(c1cnccc1C(F)(F)F)c1cccc2ccccc12 (stereo not drawn) [Compound I-42],0%,0%,30%,0%,70%,0%,90%,0%,90%,10%,95%,10%,30%,70%,–
COC(=O)NC(c1cnccc1C(F)(F)F)c1cccc2ccccc12 (stereo not drawn) [Compound I-45],40%,40%,30%,0%,0%,40%,60%,50%,90%,20%,90%,60%,30%,85%,–
CN(C(=O)Cc1ccccc1)C(c1cnccc1C(F)(F)F)c1cccc2ccccc12 (stereo not drawn) [Compound I-47],–,–,–,–,–,–,–,–,–,–,30%,0%,10%,98%,Growth controlling degree (%) Prickly sida (prickly sida; active ingredient 2000 g/ha): 40%; Growth controlling degree (%) Velvetleaf (velvetleaf; active ingredient 2000 g/ha): 20%; Growth controlling degree (%) wheat (wheat; active ingredient 2000 g/ha): 20%; Growth controlling degree (%) Soyabean (soybean; active ingredient 2000 g/ha): 10%; Growth controlling degree (%) Barnyardgrass (barnyardgrass [1]; active ingredient 2000 g/ha): 60%; Growth controlling degree (%) Redroot pigweed (redroot pigweed; active ingredient 2000 g/ha): 0%; Growth controlling degree (%) Green foxtail (green foxtail; active ingredient 2000 g/ha): 80%; Growth controlling degree (%) Rice (rice; active ingredient 2000 g/ha): 0%; Growth controlling degree (%) Crabgrass (crabgrass; active ingredient 2000 g/ha): 90%; Growth controlling degree (%) Corn (corn; active ingredient 2000 g/ha): 10%
CN(C(=O)Cc1cccs1)C(c1cnccc1C(F)(F)F)c1cccc2ccccc12 (stereo not drawn) [Compound I-48],–,–,–,–,–,–,–,–,–,–,30%,0%,10%,100%,Growth controlling degree (%) Prickly sida (prickly sida; active ingredient 2000 g/ha): 20%; Growth controlling degree (%) Velvetleaf (velvetleaf; active ingredient 2000 g/ha): 40%; Growth controlling degree (%) wheat (wheat; active ingredient 2000 g/ha): 30%; Growth controlling degree (%) Soyabean (soybean; active ingredient 2000 g/ha): 0%; Growth controlling degree (%) Barnyardgrass (barnyardgrass [1]; active ingredient 2000 g/ha): 20%; Growth controlling degree (%) Redroot pigweed (redroot pigweed; active ingredient 2000 g/ha): 30%; Growth controlling degree (%) Green foxtail (green foxtail; active ingredient 2000 g/ha): 100%; Growth controlling degree (%) Rice (rice; active ingredient 2000 g/ha): 20%; Growth controlling degree (%) Crabgrass (crabgrass; active ingredient 2000 g/ha): 70%; Growth controlling degree (%) Corn (corn; active ingredient 2000 g/ha): 10%
CC(C)C(c1cnccc1Cl)N(C)C(=O)Cc1ccccc1 (stereo not drawn) [I-22],–,–,–,–,–,–,–,–,–,–,95%,95%,0%,–,Growth controlling degree (%) Prickly sida (prickly sida; active ingredient 500 g/ha): 70%; Growth controlling degree (%) Velvetleaf (velvetleaf; active ingredient 500 g/ha): 70%; Growth controlling degree (%) wheat (wheat; active ingredient 500 g/ha): 30%; Growth controlling degree (%) Soyabean (soybean; active ingredient 500 g/ha): 10%; Growth controlling degree (%) Barnyardgrass (barnyardgrass [1]; active ingredient 500 g/ha): 90%; Growth controlling degree (%) Redroot pigweed (redroot pigweed; active ingredient 500 g/ha): 90%; Growth controlling degree (%) Green foxtail (green foxtail; active ingredient 500 g/ha): 90%; Growth controlling degree (%) Rice (rice; active ingredient 500 g/ha): 10%; Growth controlling degree (%) Crabgrass (crabgrass; active ingredient 500 g/ha): 95%; Growth controlling degree (%) Corn (corn; active ingredient 500 g/ha): 20%

# Source: patent publication US20050239656A1, “Pyridine compounds or salts thereof and herbicides containing the same” (priority 2002, published 2005)
